These results are taken from PubChem BioAssay (NCI).

Among the test systems are CAKI-1 renal; HOP-92 NSCLC; A549 NSCLC; NCI-H23 lung; OVCAR-5 ovarian; SK-MEL-5 melanoma; TK-10 renal; SN12C renal; A498 renal; UACC-62 melanoma.
Common to all, as to assay: growth of human tumour cells (NCI), 48 h

Values joined by “and” are separate entries in the source; they are usually repeats but may differ in a detail not shown here. Equal values may be shown once.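 In this assay, cells in 96-well plates receive the compound at five concentrations for 48 hours. Endpoints are linearly interpolated between the surrounding concentrations. GI50 = concentration required for 50% inhibition of growth. Definition used: TGI = concentration required for complete inhibition of growth.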

Consider `CN[C@@H]1C[C@H]2O[C@@](C)([C@@H]1OC)n1c3ccccc3c3c4c(c5c6ccccc6n2c5c31)C(=O)N[C@@H]4O`, for which the TGI was 0.0229 µM in the assay on CAKI-1 renal; 0.3 µM and 2.87 µM with A549 NSCLC; 1.53 µM in the assay on NCI-H23 lung; 0.298 µM and 0.24 µM with OVCAR-5 ovarian; 0.766 µM in the assay on SK-MEL-5 melanoma; 0.3 µM and 0.0914 µM in the assay on TK-10 renal. Further, the TGI with SN12C renal was 6.77 µM; with A498 renal it was 0.0232 µM and 0.0257 µM; in the assay with UACC-62 melanoma, 0.908 µM. The GI50 with HOP-92 NSCLC was below 0.0205 µM; with A549 NSCLC, 0.0328 µM; with OVCAR-5 ovarian, 0.0226 µM; in the assay on TK-10 renal, 0.0195 µM and 0.0211 µM; in the assay with A498 renal, 0.0053 µM.

For `CC[C@@]1(O)C(=O)OCc2c1cc1n(c2=O)Cc2cc3cc(N)ccc3nc2-1`, the GI50 was 0.00361 µM and 0.026 µM in the assay on CAKI-1 renal; 0.0132 µM and < 0.025 µM in the assay with HOP-92 NSCLC; 0.0373 µM and 0.0155 µM in the assay on A549 NSCLC; 0.0195 µM and 0.11 µM with OVCAR-5 ovarian; 0.0238 µM in the assay on SK-MEL-5 melanoma; 0.385 µM and 0.169 µM in the assay with TK-10 renal. The GI50 with SN12C renal was 0.0142 µM; in the assay on A498 renal it was 0.0277 µM and 0.0376 µM; in the assay with UACC-62 melanoma it was 0.00212 µM. For the same molecule, the TGI is 1.62 µM and 1.21 µM with CAKI-1 renal; 0.773 µM and 0.247 µM in the assay on HOP-92 NSCLC; 2.24 µM and 1.26 µM with A549 NSCLC; 0.0773 µM and 0.0247 µM in the assay on NCI-H23 lung; 0.109 µM and 0.627 µM in the assay with OVCAR-5 ovarian; 0.195 µM and 0.0366 µM with SK-MEL-5 melanoma. Moreover, the TGI is 0.243 µM and 0.123 µM in the assay on SN12C renal; 0.143 µM and 0.152 µM with A498 renal; 0.0393 µM and < 0.021 µM with UACC-62 melanoma.

For the molecule `Nc1ccc(S(=O)(=O)NCc2nccs2)cc1`, the TGI came out at 84.6 µM with CAKI-1 renal; 41.4 µM in the assay with HOP-92 NSCLC; 94.3 µM with A549 NSCLC; 58.9 µM with NCI-H23 lung; 35.7 µM with OVCAR-5 ovarian; 29.6 µM in the assay on SK-MEL-5 melanoma. The TGI with TK-10 renal amounted to 56.5 µM; in the assay with SN12C renal, 37.8 µM; with A498 renal it was 33.4 µM; with UACC-62 melanoma, 41.8 µM.

As for `N#C[C@@H]1C(n2ccc(N)nc2=O)O[C@H](CO)[C@H]1O` (some centres not stated), the GI50 was 3.49 µM with CAKI-1 renal; 7.66 µM in the assay with HOP-92 NSCLC; 6.16 µM in the assay on A549 NSCLC; 4.51 µM in the assay on NCI-H23 lung; above 75.2 µM in the assay on OVCAR-5 ovarian; 38.3 µM with SK-MEL-5 melanoma. Moreover, the GI50 was above 100 µM in the assay on TK-10 renal, 9.69 µM in the assay on SN12C renal, above 100 µM in the assay with A498 renal and 28 µM in the assay on UACC-62 melanoma. For the same molecule, the TGI in the assay with CAKI-1 renal, in the assay with HOP-92 NSCLC, in the assay on A549 NSCLC, in the assay on NCI-H23 lung, with OVCAR-5 ovarian and with SK-MEL-5 melanoma was above 100 µM throughout. In addition, the TGI in the assay on TK-10 renal, with SN12C renal, in the assay with A498 renal and with UACC-62 melanoma was above 100 µM throughout.

`Cc1ccc(S(=O)(=O)N=Nc2c(O)[nH]c3c(Cl)cc(Cl)cc23)cc1`: the TGI with CAKI-1 renal, in the assay with HOP-92 NSCLC, in the assay on A549 NSCLC, in the assay on NCI-H23 lung, in the assay on OVCAR-5 ovarian and in the assay on SK-MEL-5 melanoma was above 100 µM in each case. In addition, the TGI with TK-10 renal, with SN12C renal, in the assay on A498 renal and with UACC-62 melanoma was above 100 µM each time.

Regarding `C=C(C=O)CCCC(C)[C@@H]1CCC23CC12CCC1[C@@]2(C)CCC(OC(C)=O)C(C)(C)C2CC(OC2OC(COC(C)=O)C(O)C(O)C2O)[C@]13C` (some centres not stated), the TGI turned out to be 10.9 µM in the assay on CAKI-1 renal; 12.4 µM with HOP-92 NSCLC; 12.5 µM with A549 NSCLC; 14.8 µM with NCI-H23 lung; 11.8 µM in the assay on OVCAR-5 ovarian; 11.3 µM with SK-MEL-5 melanoma. The TGI in the assay with TK-10 renal was determined as 12.5 µM; in the assay with SN12C renal it was 5.77 µM; in the assay with A498 renal, 13.3 µM; in the assay on UACC-62 melanoma, 3.49 µM.

Turning to `C=C1C(=O)O[C@H]2C[C@@]3(C)[C@H](O)CCC(=C)[C@@H]3[C@@H](OC(C)=O)[C@H]12`, the TGI with CAKI-1 renal worked out at 3.23 µM; with HOP-92 NSCLC, 16 µM; in the assay with A549 NSCLC, 33.7 µM; in the assay on NCI-H23 lung it was 27.6 µM; with OVCAR-5 ovarian, 25.3 µM; in the assay on SK-MEL-5 melanoma, 26.4 µM. Moreover, the TGI with TK-10 renal worked out at 24.1 µM; in the assay with SN12C renal it was 29.5 µM; in the assay on A498 renal, 44.2 µM; in the assay with UACC-62 melanoma, 37.3 µM.

In the case of `CC(C)(C)NC(=O)[C@H]1C[C@H]2CCCC[C@H]2CN1C[C@@H](O)[C@H](Cc1ccccc1)NC(=O)[C@H](CC(N)=O)NC(=O)c1ccc2ccccc2n1`, the GI50 is 16.4 µM in the assay on CAKI-1 renal; 4.17 µM in the assay with HOP-92 NSCLC; 13.2 µM in the assay with A549 NSCLC; 16 µM with NCI-H23 lung; 16.7 µM with OVCAR-5 ovarian; 14.5 µM in the assay with SK-MEL-5 melanoma. In addition, the GI50 was 15.4 µM with TK-10 renal, 13.9 µM in the assay on SN12C renal, 15.7 µM with A498 renal and 13.6 µM in the assay on UACC-62 melanoma. Moreover, the TGI in the assay with CAKI-1 renal is 33.1 µM; in the assay with HOP-92 NSCLC, 20 µM; with A549 NSCLC, 31 µM; with NCI-H23 lung, 33.2 µM; in the assay on OVCAR-5 ovarian, 30.5 µM; in the assay on SK-MEL-5 melanoma, 30 µM. For the same molecule, the TGI in the assay with TK-10 renal amounted to 36.6 µM; with SN12C renal, 27.8 µM; in the assay on A498 renal it was 32.1 µM; in the assay with UACC-62 melanoma it was 27.7 µM.

For `CCN(CC)CCCC(C)Nc1c2ccc(C)cc2nc2ccc(OC)cc12` (configuration not stated), the GI50 in the assay on CAKI-1 renal is 2.68 µM; with HOP-92 NSCLC it was 0.885 µM; in the assay with A549 NSCLC it was 0.6 µM; in the assay on NCI-H23 lung, 1.84 µM; in the assay with OVCAR-5 ovarian it was 2.11 µM; in the assay with SK-MEL-5 melanoma, 1.65 µM. Further, the GI50 with TK-10 renal is 0.569 µM; with SN12C renal it was 3.12 µM; with A498 renal, 0.863 µM; with UACC-62 melanoma, 10.5 µM. In addition, the TGI in the assay on CAKI-1 renal was found to be 8.98 µM; in the assay with HOP-92 NSCLC, 5.1 µM; in the assay with A549 NSCLC, 3.25 µM; in the assay on NCI-H23 lung it was 5.86 µM; in the assay with OVCAR-5 ovarian, 21.6 µM; in the assay on SK-MEL-5 melanoma, 3.03 µM. Also, the TGI was found to be 12.5 µM with TK-10 renal, 55.1 µM in the assay on SN12C renal, 13.8 µM in the assay on A498 renal and 27.9 µM in the assay on UACC-62 melanoma.

Regarding `COC(=O)c1nc(N)[nH]c(=O)c1CCCCCc1c(C(=O)OC)nc(N)[nH]c1=O`, the TGI in the assay with CAKI-1 renal, with HOP-92 NSCLC, with A549 NSCLC, in the assay with NCI-H23 lung, in the assay with OVCAR-5 ovarian and in the assay with SK-MEL-5 melanoma was above 50 µM in each case. For the same molecule, the TGI in the assay with TK-10 renal, in the assay on SN12C renal, in the assay with A498 renal and with UACC-62 melanoma was above 50 µM throughout.
